Experimental data published in publication PMC13626384 (Journal of medicinal chemistry, 2025).
“Also recorded” adds a separate entry of the source. Where two headings read alike, the source gives them in different places.

Columns and labels:
SF188 cell line = experiment: Cytotoxicity against SF188 cells; format: cell-based, human
H460 cell line = experiment: Cytotoxicity against H460 cells; format: cell-based
Plasma stability = format: in vitro ADME; conditions: for remaining at 2 h / remaining at 5 h: mouse, plasma, Plasma Stability % remaining; for Plasma Stability % remaining: mouse plasma
in vitro = conditions: mouse liver microsomes
[1] = Liver microsomal stability; conditions: mouse liver microsomes
[2] = Caco-2 cell permeability and efflux; format: in vitro ADME, human; conditions: human
D283-med cell line = experiment: Cytotoxicity against D283-med cells; format: cell-based, human; conditions: read-out: D283-med IC50
Caco-2 cells = experiment: Caco-2 cell permeability and efflux; format: in vitro ADME, human; conditions: for Efflux Ratio: Caco-2; for % Recovery (A-B): Caco-2, A-B direction; for % Recovery (B-A): Caco-2, B-A direction; for Pe (A-B): Caco-2, apical to basolateral; for Pe (B-A): Caco-2, basolateral to apical
[3] = target: human immunoproteasome (i20S) β5 (Homo sapiens, UniProt P20618+P28062); experiment: Proteasome subunit inhibition, i20S β5; format: biochemical; conditions: read-out: i20S β5 IC50 ± SD; read 60 to 90 minutes after start
[4] = target: human immunoproteasome (i20S) β2 (Homo sapiens, UniProt P40306+P49720); experiment: Proteasome subunit inhibition, i20S β2; format: biochemical
[5] = target: human immunoproteasome (i20S) β1 (Homo sapiens, UniProt P28065+P40306); experiment: Proteasome subunit inhibition, i20S β1; format: biochemical
[6] = In vivo pharmacokinetics, plasma and brain; set-up: species or system Male C57BL/6 mice; conditions: mice
mice = experiment: Toxicity observation in the PK study; format: in vivo; conditions: 1 mg/kg i.v., 1 mg/kg
[7] = PAMPA-BBB permeability assay; conditions: PAMPA-BBB
[8] = tested on: human foreskin fibroblasts (HFF-1) cell line; experiment: Cytotoxicity against HFF-1 cells; format: cell-based; conditions: read-out: HFF-1 IC50; non-cancerous fibroblasts
[9] = target: human constitutive proteasome (c20S) β1 (Homo sapiens, UniProt P28072+Q99436); experiment: Proteasome subunit inhibition, c20S β1; format: biochemical
[10] = Homo sapiens, SF-188, read-out: SF188 IC50, glioblastoma cell line
[11] = read-out: SF188 IC50, glioblastoma cell line
[12] = read-out: H460 IC50, non-small cell lung cancer cell line
[13] = read-out: i20S β2 IC50 ± SD, read 60 to 90 minutes after start
[14] = read-out: i20S β1 IC50 ± SD, read 60 to 90 minutes after start
[15] = 10 mg/kg i.v., compound by itself, 30 minutes
[16] = 10 mg/kg i.v., pretreated with tariquidar, 0.5 h
[17] = 10 mg/kg i.v., with and without tariquidar

remaining at 2 h (Plasma stability; after 2 hr) [%]	half-life (in vitro) [min]	Microsomal Stability Clearance Category [1]	Compound	IC50 (SF188 cell line; [11]) [nM]	IC50 (H460 cell line; [12]) [nM]	IC50 (D283-med cell line; medulloblastoma cell line) [nM]	Plasma Stability % remaining (Plasma stability; after 2 hr) [after 2 hr %]	Plasma Stability % remaining (Plasma stability; after 5 hr)	Efflux Ratio (Caco-2 cells)	% Recovery (A-B) (Caco-2 cells) [%]	% Recovery (B-A) (Caco-2 cells) [%]	Pe (A-B) (Caco-2 cells)	Pe (B-A) (Caco-2 cells)	IC50 [3] [nM]	IC50 [4, 13] [nM]	IC50 [5, 14] [nM]	Microsomal Stability mCLint [1] [µL/min/mg]	% Recovery [7] [%]	Mean Permeability [7]	Pe (effective permeability) [7]	also measured
> 99	< 5	High	CC(C)C[C@H](NC(=O)C(CSc1c(F)c(F)c(F)c(F)c1F)NC(=O)[C@@H](NC(=O)c1cc(Cl)ccc1Cl)C(C)C)C(=O)[C@@]1(C)CO1 (stereo in doubt) [Compound 4, 2,5-Dichloro-N-((S)-3-methyl-1-(((S)-1-(((S)-4-methyl-1-((R)-2-methyloxiran-2-yl)-1-oxopentan-2-yl)amino)-1-oxo-3-((perfluorophenyl)thio)propan-2-yl)amino)-1-oxobutan-2-yl)benzamide]	192 ± 70	–	–	–	–	–	–	–	–	–	–	–	–	–	–	–	–	IC50 (SF188 cell line; [10]): < 200 nM; remaining at 5 h (Plasma stability; after 5 hr): > 75%; Papp B→A ([2]; Caco-2): 1.3 ×10⁻⁶ cm/s; recovery ([2]; Caco-2, % Recovery (A-B), Caco-2, A-B direction): 27%; recovery ([2]; Caco-2, % Recovery (B-A), Caco-2, B-A direction): 42%
–	–	High	CC(C)C[C@H](NC(=O)[C@@H]1Cc2c(F)c(F)c(c(F)c2F)Sc2cccc(c2)CC(=O)NC(C)(C)C(=O)N1)C(=O)[C@@]1(C)CO1 [Compound 31, (S)-3^2,3^3,3^5,3^6-Tetrafluoro-8,8-dimethyl-N-((S)-4-methyl-1-((R)-2-methyloxiran-2-yl)-1-oxopentan-2-yl)-7,10-dioxo-2-thia-6,9-diaza-1(1,3),3(1,4)-dibenzenacycloundecaphane-5-carboxamide]	24 ± 9	175 ± 16	57 ± 14	81	–	17.6	94	73	3.6 10^−6 cm/sec	63.0 10^−6 cm/sec	763 ± 199	1060 ± 121	207 ± 14.3	182	64	3.70 10^−6 cm/sec	–	IC50 [8]: 122 ± 14 nM; Microsomal Stability t1/2 [1]: 8 min
–	–	Medium	CC(C)C[C@H](NC(=O)[C@@H]1CSCCCCCCCCCC(=O)N[C@@H](C(C)C)C(=O)N1)C(=O)[C@@]1(C)CO1 [Compound 39]	20 ± 3	79 ± 21	14.8 ± 2.3	87	more than 75%	1.5	67	74	9.8 10^−6 cm/sec	14.6 10^−6 cm/sec	63.9 ± 7.2	45.3 ± 3.1	99 ± 8.4	33	44	3.43 10^−6 cm/sec	around 4 10^−6 cm s^−1	Microsomal Stability t1/2 [1]: 42 min

The remaining lines, values behind:

Compound	remaining at 2 h (Plasma stability; after 2 hr) [%]	half-life (in vitro) [min]	Microsomal Stability Clearance Category [1]	IC50 (SF188 cell line; [11]) [nM]	IC50 (H460 cell line; [12]) [nM]	IC50 (D283-med cell line; medulloblastoma cell line) [nM]	Plasma Stability % remaining (Plasma stability; after 2 hr) [after 2 hr %]	Plasma Stability % remaining (Plasma stability; after 5 hr)	Efflux Ratio (Caco-2 cells)	% Recovery (A-B) (Caco-2 cells) [%]	% Recovery (B-A) (Caco-2 cells) [%]	Pe (A-B) (Caco-2 cells)	Pe (B-A) (Caco-2 cells)	IC50 [3] [nM]	IC50 [4, 13] [nM]	IC50 [5, 14] [nM]	Microsomal Stability mCLint [1] [µL/min/mg]	% Recovery [7] [%]	Mean Permeability [7]	Pe (effective permeability) [7]	also measured
CC(C)C[C@H](NC(=O)C(CSc1c(F)c(F)c(F)c(F)c1F)NC(=O)[C@@H](NC(=O)CCc1ccccc1)C(C)C)C(=O)[C@@]1(C)CO1 (stereo in doubt) [Compound 2, (S)-3-Methyl-N-((S)-1-(((S)-4-methyl-1-((R)-2-methyloxiran-2-yl)-1-oxopentan-2-yl)amino)-1-oxo-3-((perfluorophenyl)thio)propan-2-yl)-2-(3-phenylpropanamido)butanamide]	> 99	< 5	High	132 ± 22	632 ± 167	–	–	–	–	–	–	–	–	–	–	–	–	–	–	–	IC50 (SF188 cell line; [10]): < 200 nM; remaining at 5 h (Plasma stability; after 5 hr): > 75%
CC(C)C[C@H](NC(=O)[C@@H]1Cc2c(F)c(F)c(c(F)c2F)Sc2cccc(c2)CC(=O)N[C@@H](C(C)C)C(=O)N1)C(=O)[C@@]1(C)CO1 [Compound 10, (5S,8S)-3^2,3^3,3^5,3^6-Tetrafluoro-8-isopropyl-N-((S)-4-methyl-1-((R)-2-methyloxiran-2-yl)-1-oxopentan-2-yl)-7,10-dioxo-2-thia-6,9-diaza-1(1,3),3(1,4)-dibenzenacycloundecaphane-5-carboxamide]	–	–	High	123 ± 8	2590	17 ± 7	98	more than 75%	1.4	83	75	25.1 10^−6 cm/sec	34.4 10^−6 cm/sec	532 ± 56.9	464 ± 50.1	163 ± 14.9	202	49	3.48 10^−6 cm/sec	around 4 10^−6 cm s^−1	Mean B/P ratio ([6]; 1 mg/kg i.v., 1.0 h): 0.78; Mean Brain Con ([6]; 1 mg/kg i.v., 1.0 h): 12.0 ng/g; Mean Plasma Conc. ([6]; 1 mg/kg i.v., 1.0 h): 16.8 ng/mL; Mean Plasma Conc. ([6]; 1 mg/kg i.v., 4.0 h): 5.4 ng/mL; Mean Brain Con ([6]; 1 mg/kg i.v., 4.0 h, LLOQ 2.00 ng/mL, 1 mg/kg): below the limit of quantification and BLQ; Plasma Cmax ([6]; 1 mg/kg i.v., earliest time point): 423 ng/mL; Signs of toxicity (mice): no signs of toxicity were observed; also recorded: lack of toxicity
C[C@@]12OC(=O)[C@]1([C@@H](O)[C@@H]1C=CCCC1)NC(=O)[C@@H]2CCCl [Marizomib, reference compound]	20	< 5	High	–	–	–	–	–	–	–	–	–	–	–	–	–	–	–	–	–	IC50 (D283-med cell line; Homo sapiens, D283 Med): 70 ± 3 nM; IC50 (SF188 cell line; Homo sapiens, SF-188, read-out: SF188 IC50): 22 ± 4 nM; IC50 (H460 cell line; Homo sapiens, NCI-H460, read-out: H460 IC50): 73 ± 6 nM; IC50 [9]: 336 ± 27.2 nM; IC50 [4]: 207 ± 22.3 nM; IC50 [5]: 40.5 ± 1.7 nM; recovery ([7]; PAMPA, % Recovery): 2%; Papp ([7]; PAMPA, Mean Permeability): 0.13 ×10⁻⁶ cm/s
S)-N-((S)-4-Methyl-1-((R)-2-methyloxiran-2-yl)-1-oxopentan-2-yl)-8,11-dioxo-2-oxa-9,12-diaza-1(1,4)-benzenacyclotetradecaphane-13-carboxamide [Compound 35]	–	–	Low	806 ± 388	853 ± 90	332 ± 12	64	more than 75%	2.5	98	93	18.6 10^−6 cm/sec	46.5 10^−6 cm/sec	1900 ± 587	1750 ± 240	78.2 ± 5.3	10	100	6.81 10^−6 cm/sec	6.8 10^−6 cm s^−1	Mean B/P ratio ([6]; 10 mg/kg i.v., alone, 1.0 h): 0.08; Mean Brain Con ([6]; 10 mg/kg i.v., alone, 1.0 h): 26.3 ng/g; Mean Plasma Conc. ([6]; 10 mg/kg i.v., alone, 1.0 h): 330 ng/mL; Mean Plasma Conc. ([6]; 10 mg/kg i.v., alone, 2.0 h): 5.3 ng/mL; Mean Brain Con ([6]; 10 mg/kg i.v., alone, 2.0 h, LLOQ 2.00 ng/mL, 10 mg/kg): below the quantification limit and BLQ; Brain concentration [6, 15]: 26 ng/mL; Brain-to-plasma ratio [6, 15]: 0.08; Mean Brain Con ([6]; 10 mg/kg i.v., pretreated with tariquidar (13 mg/kg, i.p.), 0.5 h): 137.0 ng/g; Mean B/P ratio [6, 16]: 0.80; Mean Plasma Conc. [6, 16]: 165.7 ng/mL; Mean Plasma Conc. ([6]; 10 mg/kg i.v., pretreated with tariquidar, 2.0 h): 5.0 ng/mL; Mean Brain Con ([6]; 10 mg/kg i.v., pretreated with tariquidar, 2.0 h, LLOQ 2.00 ng/mL): below the quantification limit and BLQ; Brain concentration ([6]; 10 mg/kg i.v., tariquidar group, 30 minutes): 137 ng/mL; Plasma Cmax (average) [6, 17]: 2453 ng/mL; Plasma half-life [6, 17]: ~ 0.25 hours
